Experimental data as given in patent US20080171159A1, “METHOD FOR STORING A DRUG-LOADED SUPPORT” (priority 2007, published 2008).

test: Vapor pressure at 25° C. by the Donovan method (gas chromatography); type: physicochemical
Protocol: The pyrethroid compound volatile at ambient temperature used in the present invention (hereinafter referred to as “the present active ingredient”) is a pyrethroid compound with a vapor pressure of about 6×10^−6 to about 1×10^−4 mm Hg at 25° C. when measured, for instance, by the method reported by Stephen F. Donovan (New method for estimating vapor pressure by use of gas chromatography, Journal of Chromatography A. 749(1996) 123-129, hereinafter referred to as “Donovan method”) and an ester compound represented by formula (I)
Specific examples of the present active ingredient are 2,3,5,6-tetrafluoro-4-methylbenzyl 3-(1-propenyl)-2,2-dimethylcyclopropanecarboxylate (7.7×10^−5 mm Hg), 2,3,5,6-tetrafluoro-4-methylbenzyl 3-(2-methyl-1-propenyl)-2,2-dimethylcyclopropanecarboxylate(3.1×10^−5 mm Hg), 2,3,5,6-tetrafluorobenzyl 3-(2,2-dichlorovinyl)-2,2-dimethylcyclopropanecarboxylate (2.6×10^−5 mm Hg), 2,3,5,6-tetrafluoro-4-methoxymethylbenzyl 3-(1-propenyl)-2,2-dimethylcyclopropanecarboxylate(1.4×10^-5 mm Hg), and 2,3,5,6-tetrafluoro-4-methoxymethylbenzyl 3-(2-methyl-1-propenyl)-2,2-dimethylcyclopropanecarboxylate(6.8×10^−6 mm Hg).

SMILES | vapor pressure
COCc1c(F)c(F)c(COC(=O)C2C(C=C(C)C)C2(C)C)c(F)c1F (centres unmarked) [2,3,5,6-tetrafluoro-4-methoxymethylbenzyl 3-(2-methyl-1-propenyl)-2,2-dimethylcyclopropanecarboxylate] | 6.8×10^−6 mm Hg
CC=CC1C(C(=O)OCc2c(F)c(F)c(C)c(F)c2F)C1(C)C (centres unmarked) [2,3,5,6-tetrafluoro-4-methylbenzyl 3-(1-propenyl)-2,2-dimethylcyclopropanecarboxylate] | 7.7×10^−5 mm Hg
CC=CC1C(C(=O)OCc2c(F)c(F)c(COC)c(F)c2F)C1(C)C (centres unmarked) [2,3,5,6-tetrafluoro-4-methoxymethylbenzyl 3-(1-propenyl)-2,2-dimethylcyclopropanecarboxylate] | 1.4×10^-5 mm Hg
CC1(C)C(C=C(Cl)Cl)C1C(=O)OCc1c(F)c(F)cc(F)c1F (centres unmarked) [2,3,5,6-tetrafluorobenzyl 3-(2,2-dichlorovinyl)-2,2-dimethylcyclopropanecarboxylate] | 2.6×10^−5 mm Hg
CC(C)=CC1C(C(=O)OCc2c(F)c(F)c(C)c(F)c2F)C1(C)C (centres unmarked) [2,3,5,6-tetrafluoro-4-methylbenzyl 3-(2-methyl-1-propenyl)-2,2-dimethylcyclopropanecarboxylate] | 3.1×10^−5 mm Hg
